Results published in ChEMBL document CHEMBL1142432 (J Med Chem, 2008).
Values after ≈ are worked out from the molar mass of the structure shown.

Assays:
[1] = Oral bioavailability in dog at 25 mg/kg; type: ADME, organism-based, Canis lupus familiaris; details: in vivo
Rattus norvegicus [2] = experiment: Toxicity in rat at 25 mg/kg for 30 days; type: organism-based; parameters: dose 25 mg/kg; details: in vivo, 720 h
Canis familiaris [3] = experiment: Toxicity in dog at 25 mg/kg for 30 days; type: organism-based, Canis lupus familiaris; parameters: dose 25 mg/kg; details: in vivo, 720 h
Rattus norvegicus [4] = experiment: Toxicity in rat at 50 mg/kg, po for 30 days; type: organism-based; parameters: dose 50 mg/kg, route oral; details: in vivo, 720 h
Canis familiaris [5] = experiment: Toxicity in dog at 40 mg/kg, po for 30 days; type: organism-based, Canis lupus familiaris; parameters: dose 40 mg/kg, route oral; details: in vivo, 720 h
[6] = Elimination half life in human; type: ADME, organism-based; details: in vivo
[7] = Total clearance in human; type: ADME, organism-based; details: in vivo
[8] = Renal clearance in human; type: ADME, organism-based, Kidney; details: in vivo, read-out: CL_renal
Homo sapiens = species: Homo sapiens; experiment: Nonrenal clearance in human; type: ADME, organism-based; details: in vivo
[9] = Drug level in human urine; type: ADME, tissue-based; details: read-out: Drug uptake
[10] = Drug level in human lung epithelial lining fluid at 600 mg, po bid after 4 hrs; type: ADME, organism-based; details: read-out: Drug uptake
[11] = target: T1, Amine oxidase [flavin-containing] A (Homo sapiens, UniProt P21397); experiment: Inhibition of monoamine oxidase A
T1 sequence (P21397 whole entry): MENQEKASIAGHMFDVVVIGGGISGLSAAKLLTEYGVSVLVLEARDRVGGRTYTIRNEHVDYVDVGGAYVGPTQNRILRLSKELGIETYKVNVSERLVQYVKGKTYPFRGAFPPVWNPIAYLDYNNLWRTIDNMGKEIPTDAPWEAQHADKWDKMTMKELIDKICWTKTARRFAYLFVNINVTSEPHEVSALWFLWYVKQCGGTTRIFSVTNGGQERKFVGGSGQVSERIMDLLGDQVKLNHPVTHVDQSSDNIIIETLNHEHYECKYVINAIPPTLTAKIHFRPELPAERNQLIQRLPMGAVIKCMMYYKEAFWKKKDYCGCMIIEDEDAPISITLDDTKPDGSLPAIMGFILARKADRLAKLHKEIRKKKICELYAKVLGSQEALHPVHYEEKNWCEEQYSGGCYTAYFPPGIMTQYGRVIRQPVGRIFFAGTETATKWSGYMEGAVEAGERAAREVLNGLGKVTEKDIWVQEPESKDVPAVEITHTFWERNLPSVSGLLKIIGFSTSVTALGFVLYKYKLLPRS

Plasma = experiment: Plasma concentration in human at 600 mg, po bid; type: ADME, organism-based; details: in vivo
Staphylococcus aureus = experiment: Protection against methicillin-resistant Staphylococcus aureus infection in pneumonia patient; type: functional
Enterococcus = experiment: Protection against vancomycin-resistant Enterococcus infection in pneumonia patient; type: functional
Rattus norvegicus [12] = experiment: Toxicity in rat at 20 mg/kg for 30 days; type: organism-based; parameters: dose 20 mg/kg; details: in vivo, 720 h
Canis familiaris [13] = experiment: Toxicity in dog at 20 mg/kg for 30 days; type: organism-based, Canis lupus familiaris; parameters: dose 20 mg/kg; details: in vivo, 720 h
[14] = tested on: Mycobacterium tuberculosis; experiment: Antimycobacterial activity against Mycobacterium tuberculosis H37Rv; type: functional
[15] = Aqueous solubility of the compound; type: physicochemical

For `CC(=O)NC[C@H]1CN(c2ccc(N3CCN(C(=O)CO)CC3)c(F)c2)C(=O)O1` [EPEREZOLID], the bioavailability [1] was 100%, the Activity (Rattus norvegicus [2]) was “Non-toxic” and the Activity (Canis familiaris [3]) was “Non-toxic”.

With `CC(=O)NC[C@H]1CN(c2ccc(N3CCOCC3)c(F)c2)C(=O)O1` [LINEZOLID] the Activity (Rattus norvegicus [4]) was “Non-toxic”, the Activity (Canis familiaris [5]) was “Non-toxic” and the half-life [6] was 5 h. It also gave a clearance [7] of 100 mL/min, a CL renal [8] of 30 mL/min and a CL (Homo sapiens) of 70 mL/min. It also gave a dose excreted [9] of 20%, a concentration at 4 h [10] of 64.3 µg/mL and a Ki [11] of 55 µM. The Cp (Plasma) was 7.3 µg/mL, the Efficacy (Staphylococcus aureus) was 77% and the Efficacy (Enterococcus) was 88%. For the same molecule, the Activity (Rattus norvegicus [12]) was “Non-toxic” and the Activity (Canis familiaris [13]) was “Non-toxic”.

`CN[C@H](CC(C)C)C(=O)N[C@H]1C(=O)N[C@@H](CC(N)=O)C(=O)N[C@H]2C(=O)N[C@H]3C(=O)N[C@H](C(=O)N[C@H](C(=O)O)c4cc(O)cc(O)c4-c4cc3ccc4O)[C@H](O)c3ccc(c(Cl)c3)Oc3cc2cc(c3O[C@@H]2O[C@H](CO)[C@@H](O)[C@H](O)[C@H]2O[C@H]2C[C@](C)(N)[C@H](O)[C@H](C)O2)Oc2ccc(cc2Cl)[C@H]1O` [VANCOMYCIN] gave an Activity (Staphylococcus aureus) of 74%.

For `CC(=O)NC[C@H]1CN(c2ccc(N3CCSCC3)c(F)c2)C(=O)O1` [SUTEZOLID], the MIC [14] was ≤ 0.125 µg/mL and the solubility [15] was 200 µg/mL (≈ 566 µM).

`NNC(=O)c1ccncc1` [ISONIAZID] showed an MIC [14] of 0.2 µg/mL (≈ 1.46 µM).
